Values quoted from earlier work, collected in PMC6005628, “Molecular genetic characteristics of influenza A virus clinically isolated during 2011‐2016 influenza seasons in Korea” (Influenza and Other Respiratory Viruses, 2018).

System: NA protein with single I222V/M substitution

In the case of CCOC(=O)C1=C[C@@H](OC(CC)CC)[C@H](NC(C)=O)[C@@H](N)C1 [oseltamivir], the “resistance associated with NA substitution” value is given as “marginal levels of resistance”.
